Assay results from ChEMBL document CHEMBL1156959, “Potent ketoamide inhibitors of HCV NS3 protease derived from quaternized P1 groups” (Bioorg Med Chem Lett, 2010).
pKi: −log10 of the molar value.

Assays:
[1] = system: Hepatitis C virus; test: Inhibition of Hepatitis C virus genotype 1 NS3 protease; assay type: functional
[2] = system: Hepatitis C virus; test: Antiviral activity against Hepatitis C virus genotype 1 assessed as Inhibition of RNA replication transfected in human hepatoma cells; assay type: functional, Hepacivirus hominis

Row | Structure (SMILES) | pKi [1] | EC90 [2] [nM]
1 | CC(C)(C)[C@H](NC(=O)NC1(CS(=O)(=O)C(C)(C)C)CCCCC1)C(=O)N1C[C@H]2[C@@H]([C@H]1C(=O)NC1(C(=O)C(=O)NC3CC3)CC1)C2(C)C | 7.74 | –
2 | CC(C)(C)[C@H](NC(=O)NC1(CS(=O)(=O)C(C)(C)C)CCCCC1)C(=O)N1C[C@H]2[C@@H]([C@H]1C(=O)NC1(C(=O)C(=O)NC3CC3)CC(O)C1)C2(C)C (stereo partly drawn) | 7.05 | –
3 | CC1CC(NC(=O)[C@@H]2[C@@H]3[C@H](CN2C(=O)[C@@H](NC(=O)NC2(CS(=O)(=O)C(C)(C)C)CCCCC2)C(C)(C)C)C3(C)C)(C(=O)C(=O)NC2CC2)C1 (stereo partly drawn) | 9.38 | –
4 | CC[C@@H]1C[C@@]1(NC(=O)[C@@H]1[C@@H]2[C@H](CN1C(=O)[C@@H](NC(=O)N[C@H](CN(C)S(C)(=O)=O)C(C)(C)C)C(C)(C)C)C2(C)C)C(=O)C(=O)NC1CC1 | 9.70 | 2700
5 | CC[C@@H]1C[C@@]1(NC(=O)[C@@H]1[C@@H]2[C@H](CN1C(=O)[C@@H](NC(=O)N[C@H](CN1C(=O)CC(C)(C)CC1=O)C(C)(C)C)C1(C)CCCCC1)C2(C)C)C(=O)C(N)=O | 10.64 | 400
6 | C[C@@H]1C[C@@]1(NC(=O)[C@@H]1[C@@H]2[C@H](CN1C(=O)[C@@H](NC(=O)NC1(CS(=O)(=O)C(C)(C)C)CCCCC1)C(C)(C)C)C2(C)C)C(=O)C(=O)NC1CC1 | 8.52 | –
7 | CC[C@@H]1C[C@@]1(NC(=O)[C@@H]1[C@@H]2[C@H](CN1C(=O)[C@@H](NC(=O)NC1([C@@H](C)S(=O)(=O)C(C)(C)C)CCCCC1)C1(C)CCCCC1)C2(C)C)C(=O)C(N)=O | 10.82 | 400
8 | CCC[C@@H]1C[C@@]1(NC(=O)[C@@H]1[C@@H]2[C@H](CN1C(=O)[C@@H](NC(=O)NC1(CS(=O)(=O)C(C)(C)C)CCCCC1)C(C)(C)C)C2(C)C)C(=O)C(=O)NC1CC1 | 9.15 | –
9 | CC[C@@H]1C[C@@]1(NC(=O)[C@@H]1[C@@H]2[C@H](CN1C(=O)[C@@H](NC(=O)N[C@H](CN1C(=O)CC(C)(C)CC1=O)C(C)(C)C)C(C)(C)C)C2(C)C)C(=O)C(N)=O | 10.24 | 1600
10 | CC(C)(C)[C@H](NC(=O)NC1(CS(=O)(=O)C(C)(C)C)CCCCC1)C(=O)N1C[C@H]2[C@@H]([C@H]1C(=O)NC1(C(=O)C(=O)NC3CC3)CCC1)C2(C)C | 7.82 | –
11 | CC[C@@H]1C[C@@]1(NC(=O)[C@@H]1[C@@H]2[C@H](CN1C(=O)[C@@H](NC(=O)NC1(CS(=O)(=O)C(C)(C)C)CCCCC1)C1CCCCC1)C2(C)C)C(=O)C(=O)NC1CC1 | 9.22 | –
12 | CCC1CC(NC(=O)[C@@H]2[C@@H]3[C@H](CN2C(=O)[C@@H](NC(=O)NC2(CS(=O)(=O)C(C)(C)C)CCCCC2)C(C)(C)C)C3(C)C)(C(=O)C(=O)NC2CC2)C1 (stereo partly drawn) | 9.72 | –
13 | CC[C@@H]1C[C@@]1(NC(=O)[C@@H]1[C@@H]2[C@H](CN1C(=O)[C@@H](NC(=O)NC1([C@@H](C)S(=O)(=O)C(C)(C)C)CCCCC1)C1(C)CCCCC1)C2(C)C)C(=O)C(=O)NC1CC1 | 9.02 | –
14 | CC[C@@H]1C[C@@]1(NC(=O)[C@@H]1[C@@H]2[C@H](CN1C(=O)[C@@H](NC(=O)N[C@H](CN1C(=O)CC(C)(C)CC1=O)C(C)(C)C)C(C)(C)C)C2(C)C)C(=O)C(=O)NC1CC1 | 10.09 | 500
15 | CC(C)(C)NC(=O)N[C@H](C(=O)N1C[C@H]2[C@@H]([C@H]1C(=O)NC(CC1CCC1)C(=O)C(N)=O)C2(C)C)C(C)(C)C (stereo partly drawn) [BOCEPREVIR] | 7.85 | 350
16 | CC[C@@H]1C[C@@]1(NC(=O)[C@@H]1[C@@H]2[C@H](CN1C(=O)[C@@H](NC(=O)NC1(CS(=O)(=O)C(C)(C)C)CCCCC1)C(C)(C)C)C2(C)C)C(=O)C(=O)NC1CC1 | 9.96 | –
17 | CC[C@@H]1C[C@@]1(NC(=O)[C@@H]1[C@@H]2[C@H](CN1C(=O)[C@@H](NC(=O)NC1([C@@H](C)S(=O)(=O)C(C)(C)C)CCCCC1)C1Cc3ccccc3C1)C2(C)C)C(=O)C(=O)NC1CC1 | 9.30 | –
